Common to all, as to assay type: functional
Assay [1] deals with Typhlodromus pyri. The assay can be described thus: Miticidal activity against compound treated Phaseolus vulgaris leaf-fed female Typhlodromus pyri Scheuten 7 assessed as mortality at 17.5 mg/l sprayed on leaf disks measured after 3 days. The following applies: Scheuten 7, foliar, 72 h.
Assay [2] has as its system Typhlodromus pyri. The experiment in a line: Miticidal activity against compound treated Phaseolus vulgaris leaf-fed female Typhlodromus pyri Scheuten 3 assessed as mortality at 17.5 mg/l sprayed on leaf disks measured after 3 days. The settings on record: Scheuten 3, foliar, 72 h.
Assay [3] relates to Typhlodromus pyri. The experiment in a line: Miticidal activity against compound treated Phaseolus vulgaris leaf-fed female Typhlodromus pyri Scheuten 1 assessed as mortality at 17.5 mg/l sprayed on leaf disks measured after 3 days. The following applies: Scheuten 1, foliar, 72 h.
For assay [4], the system named is Typhlodromus pyri. The experiment in a line: Miticidal activity against compound treated Phaseolus vulgaris leaf-fed female Typhlodromus pyri Scheuten 4 assessed as mortality at 17.5 mg/l sprayed on leaf disks measured after 3 days. The following applies: Scheuten 4, foliar, 72 h.
Assay [5] has as its system Typhlodromus pyri. The assay can be described thus: Miticidal activity against compound treated Phaseolus vulgaris leaf-fed female Typhlodromus pyri Scheuten 10 assessed as mortality at 17.5 mg/l sprayed on leaf disks measured after 3 days. The following applies: Scheuten 10, foliar, 72 h.
Assay [6] deals with Typhlodromus pyri. The assay can be described thus: Miticidal activity against compound treated Phaseolus vulgaris leaf-fed female Typhlodromus pyri Scheuten 6 assessed as mortality at 17.5 mg/l sprayed on leaf disks measured after 3 days. The following applies: Scheuten 6, foliar, 72 h.
The test system of assay [7] is Typhlodromus pyri. The experiment in a line: Miticidal activity against compound treated Phaseolus vulgaris leaf-fed female Typhlodromus pyri Scheuten 8 assessed as mortality at 17.5 mg/l sprayed on leaf disks measured after 3 days. The settings on record: Scheuten 8, foliar, 72 h.
The test system of assay [8] is Typhlodromus pyri. The experiment in a line: Miticidal activity against compound treated Phaseolus vulgaris leaf-fed female Typhlodromus pyri Scheuten 2 assessed as mortality at 17.5 mg/l sprayed on leaf disks measured after 3 days. The settings on record: Scheuten 2, foliar, 72 h.
Assay [9] deals with Typhlodromus pyri. The experiment in a line: Miticidal activity against compound treated Phaseolus vulgaris leaf-fed female Typhlodromus pyri Scheuten 9 assessed as mortality at 17.5 mg/l sprayed on leaf disks measured after 3 days. The following applies: Scheuten 9, foliar, 72 h.
Assay [10] has as its system Typhlodromus pyri. The experiment in a line: Miticidal activity against compound treated Phaseolus vulgaris leaf-fed female Typhlodromus pyri Scheuten 11 assessed as mortality at 17.5 mg/l sprayed on leaf disks measured after 3 days. The settings on record: Scheuten 11, foliar, 72 h.
For assay [11], the system named is Typhlodromus pyri. The experiment in a line: Miticidal activity against compound treated Phaseolus vulgaris leaf-fed female Typhlodromus pyri Scheuten 12 assessed as mortality at 17.5 mg/l sprayed on leaf disks measured after 3 days. The settings on record: Scheuten 12, foliar, 72 h.
In assay [12] the test system is Typhlodromus pyri. The assay can be described thus: Miticidal activity against compound treated Phaseolus vulgaris leaf-fed female Typhlodromus pyri Scheuten 5 assessed as mortality at 17.5 mg/l sprayed on leaf disks measured after 3 days. The settings on record: Scheuten 5, foliar, 72 h.
For assay [13], the system named is Typhlodromus pyri. The assay can be described thus: Miticidal activity against compound treated Phaseolus vulgaris leaf-fed female Typhlodromus pyri Scheuten 13 assessed as mortality at 17.5 mg/l sprayed on leaf disks measured after 3 days. The settings on record: Scheuten 13, foliar, 72 h.
Assay [14] concerns Typhlodromus pyri. The experiment in a line: Miticidal activity against compound treated Phaseolus vulgaris leaf-fed female Typhlodromus pyri Scheuten 9 assessed as mortality at 855 mg/l sprayed on leaf disks measured after 3 days. The settings on record: Scheuten 9, foliar, 72 h.
The subject of assay [15] is Typhlodromus pyri. The assay can be described thus: Miticidal activity against compound treated Phaseolus vulgaris leaf-fed female Typhlodromus pyri Scheuten 13 assessed as mortality at 855 mg/l sprayed on leaf disks measured after 3 days. The settings on record: Scheuten 13, foliar, 72 h.
Assay [16] has as its system Typhlodromus pyri. The assay can be described thus: Miticidal activity against compound treated Phaseolus vulgaris leaf-fed female Typhlodromus pyri Scheuten 10 assessed as mortality at 855 mg/l sprayed on leaf disks measured after 3 days. The settings on record: Scheuten 10, foliar, 72 h.
Assay [17] concerns Typhlodromus pyri. The experiment in a line: Miticidal activity against compound treated Phaseolus vulgaris leaf-fed female Typhlodromus pyri Scheuten 5 assessed as mortality at 855 mg/l sprayed on leaf disks measured after 3 days. The settings on record: Scheuten 5, foliar, 72 h.
Assay [18] concerns Typhlodromus pyri. The experiment in a line: Miticidal activity against compound treated Phaseolus vulgaris leaf-fed female Typhlodromus pyri Scheuten 4 assessed as mortality at 855 mg/l sprayed on leaf disks measured after 3 days. The following applies: Scheuten 4, foliar, 72 h.
Assay [19] relates to Typhlodromus pyri. The assay can be described thus: Miticidal activity against compound treated Phaseolus vulgaris leaf-fed female Typhlodromus pyri Scheuten 8 assessed as mortality at 855 mg/l sprayed on leaf disks measured after 3 days. The following applies: Scheuten 8, foliar, 72 h.
Assay [20] has as its system Typhlodromus pyri. The assay can be described thus: Miticidal activity against compound treated Phaseolus vulgaris leaf-fed female Typhlodromus pyri Scheuten 11 assessed as mortality at 855 mg/l sprayed on leaf disks measured after 3 days. The settings on record: Scheuten 11, foliar, 72 h.
Assay [21] concerns Typhlodromus pyri. The assay can be described thus: Miticidal activity against compound treated Phaseolus vulgaris leaf-fed female Typhlodromus pyri Scheuten 12 assessed as mortality at 855 mg/l sprayed on leaf disks measured after 3 days. The following applies: Scheuten 12, foliar, 72 h.
Assay [22] concerns Typhlodromus pyri. The experiment in a line: Miticidal activity against compound treated Phaseolus vulgaris leaf-fed female Typhlodromus pyri Scheuten 7 assessed as mortality at 855 mg/l sprayed on leaf disks measured after 3 days. The following applies: Scheuten 7, foliar, 72 h.
Assay [23] has as its system Typhlodromus pyri. The assay can be described thus: Miticidal activity against compound treated Phaseolus vulgaris leaf-fed female Typhlodromus pyri Scheuten 1 assessed as mortality at 855 mg/l sprayed on leaf disks measured after 3 days. The settings on record: Scheuten 1, foliar, 72 h.
The test system of assay [24] is Typhlodromus pyri. The assay can be described thus: Miticidal activity against compound treated Phaseolus vulgaris leaf-fed female Typhlodromus pyri Scheuten 6 assessed as mortality at 855 mg/l sprayed on leaf disks measured after 3 days. The following applies: Scheuten 6, foliar, 72 h.
For assay [25], the system named is Typhlodromus pyri. The experiment in a line: Miticidal activity against compound treated Phaseolus vulgaris leaf-fed female Typhlodromus pyri Scheuten 3 assessed as mortality at 855 mg/l sprayed on leaf disks measured after 3 days. The following applies: Scheuten 3, foliar, 72 h.
Assay [26] has as its system Typhlodromus pyri. The assay can be described thus: Miticidal activity against compound treated Phaseolus vulgaris leaf-fed female Typhlodromus pyri Scheuten 2 assessed as mortality at 855 mg/l sprayed on leaf disks measured after 3 days. The following applies: Scheuten 2, foliar, 72 h.

Each structure is given as a SMILES string.

One may read the mortality as the percentage killed. As for `CC1(C)[C@H](C(=O)O[C@H](C#N)c2cccc(Oc3ccccc3)c2)[C@@H]1C=C(Br)Br` [DELTAMETHRIN], the mortality at 17.5 µg/mL was 23.6% with Typhlodromus pyri [1]; 61.8% in the assay on Typhlodromus pyri [2]; 90.2% in the assay on Typhlodromus pyri [3]; 84.3% with Typhlodromus pyri [4]; 100% with Typhlodromus pyri [5]; 5.3% in the assay on Typhlodromus pyri [6]. For the same molecule, the mortality at 17.5 µg/mL was 31.2% in the assay on Typhlodromus pyri [7]; 92% with Typhlodromus pyri [8]; 74% with Typhlodromus pyri [9]; 62.9% in the assay with Typhlodromus pyri [10]; 20.6% with Typhlodromus pyri [11]; 86.1% in the assay with Typhlodromus pyri [12]. For the same molecule, the mortality at 17.5 µg/mL in the assay on Typhlodromus pyri [13] is 75%.

With `CCOP(=S)(OCC)Oc1nc(Cl)c(Cl)cc1Cl` [CHLORPYRIFOS], the mortality at 855 µg/mL in the assay with Typhlodromus pyri [14] worked out at 74%; in the assay on Typhlodromus pyri [15], 32.5%; in the assay on Typhlodromus pyri [16], 55.5%; in the assay on Typhlodromus pyri [17], 8.3%; with Typhlodromus pyri [18] it was 56.2%; in the assay on Typhlodromus pyri [19], 25.9%. Besides, the mortality at 855 µg/mL in the assay with Typhlodromus pyri [20] amounted to 10.4%; with Typhlodromus pyri [21] it was 7.9%; in the assay on Typhlodromus pyri [22], 40.9%; in the assay with Typhlodromus pyri [23], 41.1%; in the assay with Typhlodromus pyri [24], 7.6%; with Typhlodromus pyri [25], 23.6%. Moreover, the mortality at 855 µg/mL in the assay on Typhlodromus pyri [26] worked out at 33.3%.
